Data reported in patent publication US20240417398A1, “TETRAHYDRONAPTHYRIDINE AND RELATED ANALOGS FOR INHIBITING YAP/TAZ-TEAD” (SpringWorks Therapeutics, Inc., priority 2023, published 2024).

The compounds below were run on YAP/TAZ-TEAD transcription (assay: Reporter gene assay for measuring the inhibition of YAP/TAZ-TEAD transcription (TEAD-responsive element luciferase reporter, Hek293T cells)). Details: Hek293T cells transfected with TEAD-responsive element luciferase reporter, 24 hours incubation.
Format: cell-based
Experimental: Hek293T cells were cultured in DMEM supplemented with 10% fetal bovine serum, Sodium pyruvate, Sodium bicarbonate, L-glutamine. The cells were harvested and transiently transfected with TEAD-responsive element luciferase reporter. Transfected cells were plated in 384-well plate containing pre-diluted compounds. After 24 hours incubation at 37° C./5% CO2, assay plates were cooled to room temperature and levelled to an equal volume per well, prior to the addition of 25 uL luciferase substrate SteadyLite (Perkin Elmer)/well. The plate was shaken for 10 min at 600 rpm, centrifuged for 1 min at 500 rpm and measured with an Envision reader (PerkinElmer). The amount of relative light units produced by the TEAD reporter was used to calculate the percentage of inhibition.
The percent of reporter inhibition was calculated in the presence of a positive control inhibitor (100% inhibition) versus a condition with the presence of the vehicle basal activity of the reporter (0% inhibition). The ability of a test compound to inhibit this activity was determined as: Percentage inhibition=[1-((RLU determined in the presence of vehicle−RLU determined for sample with test compound present) divided by (RLU determined in the presence of vehicle−RLU determined for sample with positive control inhibitor))]*100.
The activities of example compounds tested are depicted in Table 3. The activity ranges A, B and C refer to IC50 values in the reporter gene assay as follows: “A”: IC50<1 μM; “B”: 1 μM≤IC50 10 μM and “C”: IC50>10 μM; NT=not tested.

| IC50 [µM] | SMILES |
| --- | --- |
| < 1 | C=CC(=O)NCC1Cc2ncccc2N(c2ccc(C(F)(F)F)cc2)C1 (single isomer, unassigned) [Cpd. No. 10-En2, (R)- or (S)-N-((1-(4-(trifluoromethyl)phenyl)-1,2,3,4-tetrahydro-1,5-naphthyridin-3-yl)methyl)acrylamide] |
| 1 to 10 | [2H]C([2H])([2H])C(=O)NCC1Cc2ncccc2N(c2ccc(C(F)(F)F)cc2)C1 (single isomer, unassigned) [Cpd. No. 34-En1, (R)- or (S)-N-((1-(4-(trifluoromethyl)phenyl)-1,2,3,4-tetrahydro-1,5-naphthyridin-3-yl)methyl)acetamide-2,2,2-d3] |
| < 1 | O=C(CC(F)(F)F)NCC1Cc2ncccc2N(c2ccc(C(F)(F)F)cc2)C1 (single isomer, unassigned) [Cpd. No. 38-En2, (R)- or (S)-3,3,3-trifluoro-N-((1-(4-(trifluoromethyl)phenyl)-1,2,3,4-tetrahydro-1,5-naphthyridin-3-yl)methyl)propanamide] |
| > 10 | CC(=O)NCC1(C)Cc2ncccc2N(c2ccc(C(F)(F)F)cc2)C1 (single isomer, unassigned) [Cpd. No. 47-En2, (R)- or (S)-N-((3-methyl-1-(4-(trifluoromethyl)phenyl)-1,2,3,4-tetrahydro-1,5-naphthyridin-3-yl)methyl)acetamide] |

Same assay, conditions: Homo sapiens, HEK-293T, 24 h, Hek293T cells transfected with TEAD-responsive element luciferase reporter, 24 hours incubation

| SMILES | IC50 [µM] |
| --- | --- |
| CC(=O)NCC1Cc2ncccc2N(c2ccc(C(F)(F)F)cc2)C1 (single isomer, unassigned) [Cpd. No. 12-En1, (R)- or (S)-N-((1-(4-(trifluoromethyl)phenyl)-1,2,3,4-tetrahydro-1,5-naphthyridin-3-yl)methyl)acetamide] | 1 to 10 |
| COC(=O)NCC1Cc2ncccc2N(c2ccc(C(F)(F)F)cc2)C1 (single isomer, unassigned) [Cpd. No. 15-En2, (R)- or (S)-methyl ((1-(4-(trifluoromethyl)phenyl)-1,2,3,4-tetrahydro-1,5-naphthyridin-3-yl)methyl)carbamate] | 1 to 10 |
| CCC(=O)NCC1Cc2ncccc2N(c2ccc(C(F)(F)F)cc2)C1 (single isomer, unassigned) [Cpd. No. 17-En1, (R)- or (S)-N-((1-(4-(trifluoromethyl)phenyl)-1,2,3,4-tetrahydro-1,5-naphthyridin-3-yl)methyl)propionamide] | 1 to 10 |
| COc1ccc2c(n1)CC(CNC(C)=O)CN2c1ccc(C(F)(F)F)cc1 (single isomer, unassigned) [Cpd. No. 22-En1, (R)- or (S)-N-((6-methoxy-1-(4-(trifluoromethyl)phenyl)-1,2,3,4-tetrahydro-1,5-naphthyridin-3-yl)methyl)acetamide] | 1 to 10 |
| O=C(CC(F)(F)F)NCC1Cc2ncccc2N(c2ccc(C(F)(F)F)cc2)C1 (single isomer, unassigned) [Cpd. No. 38-En1, (R)- or (S)-3,3,3-trifluoro-N-((1-(4-(trifluoromethyl)phenyl)-1,2,3,4-tetrahydro-1,5-naphthyridin-3-yl)methyl)propanamide] | 1 to 10 |
| CS(=O)(=O)NCC1Cc2c(Oc3cccnc3)cccc2N(c2ccc(C(F)(F)F)cc2)C1 (stereo not drawn) [Cpd. No. 2, N-((5-(pyridin-3-yloxy)-1-(4-(trifluoromethyl)phenyl)-1,2,3,4-tetrahydroquinolin-3-yl)methyl)methanesulfonamide] | 1 to 10 |
| CS(=O)(=O)NCC1Cc2c(OCc3cc(=O)[nH]c(=O)[nH]3)cccc2N(c2ccc(C(F)(F)F)cc2)C1 (stereo not drawn) [Cpd. No. 8, N-((5-((2,6-dioxo-1,2,3,6-tetrahydropyrimidin-4-yl)methoxy)-1-(4-(trifluoromethyl)phenyl)-1,2,3,4-tetrahydroquinolin-3-yl)methyl)methanesulfonamide] | 1 to 10 |
| O=C(O)CC1Cc2ncccc2N(c2ccc(C(F)(F)F)cc2)C1 (stereo not drawn) [Cpd. No. 13, 2-(1-(4-(trifluoromethyl)phenyl)-1,2,3,4-tetrahydro-1,5-naphthyridin-3-yl)acetic acid] | 1 to 10 |
| CC(=O)NCC1Cc2c(ccc[n+]2[O-])N(c2ccc(C(F)(F)F)cc2)C1 (stereo not drawn) [Cpd. No. 16, 7-(acetamidomethyl)-5-(4-(trifluoromethyl)phenyl)-5,6,7,8-tetrahydro-1,5-naphthyridine 1-oxide] | 1 to 10 |
| CC(=O)NCC1Cc2nc(O)ccc2N(c2ccc(C(F)(F)F)cc2)C1 (stereo not drawn) [Cpd. No. 23, N-((6-hydroxy-1-(4-(trifluoromethyl)phenyl)-1,2,3,4-tetrahydro-1,5-naphthyridin-3-yl)methyl)acetamide] | > 10 |
| O=C(O)COC1Cc2ncccc2N(c2ccc(C(F)(F)F)cc2)C1 (stereo not drawn) [Cpd. No. 24, 2-((1-(4-(trifluoromethyl)phenyl)-1,2,3,4-tetrahydro-1,5-naphthyridin-3-yl)oxy)acetic acid] | > 10 |
| FC(F)(F)c1ccc(N2CC(CNC3COC3)Cc3ncccc32)cc1 (stereo not drawn) [Cpd. No. 25, N-((1-(4-(trifluoromethyl)phenyl)-1,2,3,4-tetrahydro-1,5-naphthyridin-3-yl)methyl)oxetan-3-amine] | > 10 |
| CC(=O)NCC1Cc2c(cc[nH]c2=O)N(c2ccc(C(F)(F)F)cc2)C1 (stereo not drawn) [Cpd. No. 27, N-((5-oxo-1-(4-(trifluoromethyl)phenyl)-1,2,3,4,5,6-hexahydro-1,6-naphthyridin-3-yl)methyl)acetamide] | > 10 |
| O=C1CC[C@@H](C(=O)NCC2Cc3ncccc3N(c3ccc(C(F)(F)F)cc3)C2)N1 (stereo partly drawn) [Cpd. No. 28, (2S)-5-oxo-N-((1-(4-(trifluoromethyl)phenyl)-1,2,3,4-tetrahydro-1,5-naphthyridin-3-yl)methyl)pyrrolidine-2-carboxamide] | > 10 |

Second part, the compound after the results:

| IC50 [µM] | SMILES |
| --- | --- |
| < 1 | CC(=O)NCC1Cc2nc(C)ccc2N(c2ccc(C(F)(F)F)cc2)C1 (single isomer, unassigned) [Cpd. No. 26-En1, (R)- or (S)-N-((6-methyl-1-(4-(trifluoromethyl)phenyl)-1,2,3,4-tetrahydro-1,5-naphthyridin-3-yl)methyl)acetamide] |
| < 1 | CCC(=O)NCC1Cc2c(Oc3cccnc3)cccc2N(c2ccc(C(F)(F)F)cc2)C1 (stereo not drawn) [Cpd. No. 1, N-((5-(pyridin-3-yloxy)-1-(4-(trifluoromethyl)phenyl)-1,2,3,4-tetrahydroquinolin-3-yl)methyl)propionamide] |
| < 1 | C=CC(=O)NCC1Cc2c(Oc3cccnc3)cccc2N(c2ccc(C(F)(F)F)cc2)C1 (stereo not drawn) [Cpd. No. 3, N-((5-(pyridin-3-yloxy)-1-(4-(trifluoromethyl)phenyl)-1,2,3,4-tetrahydroquinolin-3-yl)methyl)acrylamide] |
| < 1 | CCC(=O)NCC1Cc2c(OCc3cc(=O)[nH]c(=O)[nH]3)cccc2N(c2ccc(C(F)(F)F)cc2)C1 (stereo not drawn) [Cpd. No. 5, N-((5-((2,6-dioxo-1,2,3,6-tetrahydropyrimidin-4-yl)methoxy)-1-(4-(trifluoromethyl)phenyl)-1,2,3,4-tetrahydroquinolin-3-yl)methyl)propionamide] |
| < 1 | CS(=O)(=O)NCC1Cc2c(OCc3cc[nH]c(=O)c3)cccc2N(c2ccc(C(F)(F)F)cc2)C1 (stereo not drawn) [Cpd. No. 9, N-((5-((2-oxo-1,2-dihydropyridin-4-yl)methoxy)-1-(4-(trifluoromethyl)phenyl)-1,2,3,4-tetrahydroquinolin-3-yl)methyl)methanesulfonamide] |
| < 1 | CCC(=O)NCC1Cc2ncccc2N(c2ccc(C(F)(F)F)cc2)C1 (stereo not drawn) [Cpd. No. 17, N-((1-(4-(trifluoromethyl)phenyl)-1,2,3,4-tetrahydro-1,5-naphthyridin-3-yl)methyl)propionamide] |
| < 1 | O=C(NCC1Cc2ncccc2N(c2ccc(C(F)(F)F)cc2)C1)C1CC1 (stereo not drawn) [Cpd. No. 18, N-((1-(4-(trifluoromethyl)phenyl)-1,2,3,4-tetrahydro-1,5-naphthyridin-3-yl)methyl)cyclopropanecarboxamide] |
| < 1 | CNS(=O)(=O)NCC1Cc2ncccc2N(c2ccc(C(F)(F)F)cc2)C1 (stereo not drawn) [Cpd. No. 19, N-(methylsulfamoyl)-1-[1-[4-(trifluoromethyl)phenyl]-3,4-dihydro-2H-1,5-naphthyridin-3-yl]methanamine] |
| < 1 | O=C(O)/C=C/C1Cc2ncccc2N(c2ccc(C(F)(F)F)cc2)C1 (stereo not drawn) [Cpd. No. 20, (E)-3-(1-(4-(trifluoromethyl)phenyl)-1,2,3,4-tetrahydro-1,5-naphthyridin-3-yl)acrylic acid] |
| < 1 | C=CC(=O)NCC1Cc2nc(OC)ccc2N(c2ccc(C(F)(F)F)cc2)C1 (stereo not drawn) [Cpd. No. 21, N-((6-methoxy-1-(4-(trifluoromethyl)phenyl)-1,2,3,4-tetrahydro-1,5-naphthyridin-3-yl)methyl)acrylamide] |
| < 1 | COc1ccc2c(n1)CC(CNC(C)=O)CN2c1ccc(C(F)(F)F)cc1 (stereo not drawn) [Cpd. No. 22, N-((6-methoxy-1-(4-(trifluoromethyl)phenyl)-1,2,3,4-tetrahydro-1,5-naphthyridin-3-yl)methyl)acetamide] |
| < 1 | O=C1CC[C@H](C(=O)NCC2Cc3ncccc3N(c3ccc(C(F)(F)F)cc3)C2)N1 (stereo partly drawn) [Cpd. No. 29, (2R)-5-oxo-N-((1-(4-(trifluoromethyl)phenyl)-1,2,3,4-tetrahydro-1,5-naphthyridin-3-yl)methyl)pyrrolidine-2-carboxamide] |
